According to US20240398845A1, “USE OF SGLT-2 INHIBITORS FOR THE PREVENTION AND/OR TREATMENT OF CARDIAC DISEASES IN NON-HUMAN MAMMALS EXCLUDING FELINES, IN PARTICULAR CANINES” (BOEHRINGER INGELHEIM VETMEDICA GMBH, priority 2021, published 2024):

System: laboratory animals diagnosed with mitral-valve disease (ACVIM stage B2 and C)
Test: Exploratory laboratory trial "MVD" - outline
Assay type: in vivo, dog
Details: dogs with mitral-valve disease stage B2 and C; velagliflozin 0.3 mg/kg bodyweight orally once daily; example headed Outline
Description: Laboratory animals (older than 1 year) diagnosed with mitral-valve disease via physical and echocardiography (according to ACVIM guidelines—stage B2 and C) are treated orally and once daily with a velagliflozin dosage of 0.3 mg/kg bodyweight. During the study period the body weight, body condition score, blood pressure and the cardiovascular system are examined on a regular basis during the visits at the site by the investigator. Additionally, thoracic radiographs (in the right lateral and dorso ventral view), echocardiography (IVSd, LA diameter, Ao diameter, LVIDd, LVWd, LVWs, IVSd, LVPWd, EDV, ESV, EF, % FS, presence of effusion) and electrocardiography are performed. In order to obtain an overview as complete as possible regular blood tests include a complete hematology (white blood cells (WBC), WBC differential, red blood cells, hemoglobin, hematocrit, Heinz bodies, platelet count), a biochemistry panel (total protein, Albumin, Globulin, Alkaline phosphatase (ALP), Alanine transaminase (ALT), Aspartate transaminase (AST), Total bilirubin, Creatinine, Blood urea nitrogen or urea (BUN), Calcium, Sodium, Potassium, Chloride, Phosphorus, Glucose, Cholesterol, Triglycerides, Fructosamine), the measurement of total T4, ketone bodies and cardiac biomarkers (Plasma NT-pro BNP, Cardiac troponin I). […]

Structure (SMILES): N#Cc1ccc([C@@H]2O[C@H](CO)[C@@H](O)[C@H](O)[C@H]2O)cc1Cc1ccc(C2CC2)cc1 [velagliflozin, Velagliflozin]
- clinical parameters (e.g. appetite, activity level and breathing): improve significantly
- survival time and time to event (death or hospitalization for heart failure, pulmonary oedema): clinically relevant prolongation
